Reference: paper PMC11876601 (Molecular Systems Biology, 2025)
Like-named read-outs stand apart in the source and are kept apart here.

What was measured:
[1] = test system: FGFR1; design: method as in Reinecke et al. (2023); conditions: FGFR1, 5 cell line mix lysate, Kinobeads ε, ref Reinecke et al. (2023), cited from earlier work
[2] = test system: TRAF2; design: method as in Reinecke et al. (2023); conditions: TRAF2, 5 cell line mix lysate, Kinobeads ε, ref Reinecke et al. (2023), cited from earlier work
[3] = target: PRKCD; design: method as in Reinecke et al. (2023); conditions: 5 cell line mix lysate, Kinobeads ε, ref Reinecke et al. (2023), cited from earlier work
[4] = test system: PRKD1; design: method as in Reinecke et al. (2023); conditions: PRKD1, 5 cell line mix lysate, Kinobeads ε, ref Reinecke et al. (2023), cited from earlier work
[5] = target: SLK; design: method as in Reinecke et al. (2023); conditions: 5 cell line mix lysate, Kinobeads ε, ref Reinecke et al. (2023), cited from earlier work
[6] = test system: ULK1; design: method as in Reinecke et al. (2023); conditions: ULK1, 5 cell line mix lysate, Kinobeads ε, ref Reinecke et al. (2023), cited from earlier work
[7] = test system: PRKAB1; design: method as in Reinecke et al. (2023); conditions: PRKAB1, 5 cell line mix lysate, Kinobeads ε, ref Reinecke et al. (2023), cited from earlier work
[8] = test system: CSNK2A2; conditions: CSNK2A2, 5 cell line mix lysate, Kinobeads ε, ref Reinecke et al. (2023), cited from earlier work
[9] = target: GAK; conditions: 5 cell line mix lysate, Kinobeads ε, ref Reinecke et al. (2023), cited from earlier work
[10] = test system: PHKA2; design: method as in Reinecke et al. (2023); conditions: PHKA2, 5 cell line mix lysate, Kinobeads ε, ref Reinecke et al. (2023), cited from earlier work
[11] = target: HCK; design: method as in Reinecke et al. (2023); conditions: 5 cell line mix lysate, Kinobeads ε, ref Reinecke et al. (2023), cited from earlier work
[12] = target: INSR; design: method as in Reinecke et al. (2023); conditions: 5 cell line mix lysate, Kinobeads ε, ref Reinecke et al. (2023), cited from earlier work
[13] = test system: HPDE (immortalized pancreatic duct cell line); assay: Drug combination viability screen (ATPlite, 72 h); format: cell-based, human; conditions: HPDE; for EC50: Homo sapiens;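 on AUC: area under vehicle-normalized viability curve scaled 0 to 100 percent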;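 on Curve bottom: fraction of vehicle control viability from four-parameter log-logistic fit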
Description: Cell viability was assessed by measuring ATP levels to indicate metabolic activity.
Afterward, small amounts were transferred to 384-well intermediate plates (Greiner Bio-One GmbH, Germany). […] For drug combination screening, 1000 to 5000 cells were seeded into 384-well plates (CulturPlate™, Perkin Elmer, MA, USA) using a Multidrop™ Combi Reagent Dispenser (Thermo Scientific, MA, USA) in 50 µl medium per well 24 h prior to drug treatment (seeding densities see Appendix Table S1). […] The final DMSO concentration in each well was 0.2%. […] Eight wells per plate without library drug served as negative controls, and sixteen wells per plate containing 5 µM Staurosporine served as positive controls. Control plates not containing any drug were used to correct for incubation effects, and data quality was assessed by calculation of Z-prime of positive and negative controls according to1 Z-prime=1−3SDpos+3SDneg/[…] where SD is the standard deviation. […] Dose–response curves from the experimental and hypothetical data were compared, and shifts in AUC were used to describe combination effects (AUC∆ = AUChypothetical − AUCexperimental). […] Only combinations with R^2 > 0.8 in both conditions were considered in the synergy analysis.

[14] = test system: PRKAB1; design: method as in Klaeger et al. (2017); conditions: lysate 4 cell line mix (Colo205, K-562, MV-4-11, and SK-N-BE(2)), Kinobeads y, ref Klaeger et al. (2017); cited from earlier work
[15] = test system: MAP4K5; design: method as in Klaeger et al. (2017); conditions: MAP4K5, 4 cell line mix lysate, Kinobeads y, ref Klaeger et al. (2017); cited from earlier work
[16] = test system: PRKCA; design: method as in Klaeger et al. (2017); conditions: lysate 4 cell line mix (Colo205, K-562, MV-4-11, and SK-N-BE(2)), Kinobeads y, ref Klaeger et al. (2017); cited from earlier work
[17] = test system: TANK; design: method as in Klaeger et al. (2017); conditions: lysate 4 cell line mix (Colo205, K-562, MV-4-11, and SK-N-BE(2)), Kinobeads y, ref Klaeger et al. (2017); cited from earlier work

Question: Which EC50 [1] does the source give for `COc1cc(N2CCC(N3CCN(C)CC3)CC2)ccc1Nc1ncc(Cl)c(Nc2ccccc2P(C)(C)=O)n1` [Brigatinib] here?
Answer: The EC50 was 419 nM.

Question: And the pKDapp [1]?
Answer: The pKDapp was 6.51.

Question: And the Kd ([1]; read-out: KDapp)?
Answer: Its Kd is 308 nM.

Question: What about the EC50 [2] of the same molecule?
Answer: Its EC50 is 3.94 µM.

Question: And the pKDapp [2]?
Answer: Its pKDapp is 5.48.

Question: And the Kd ([2]; read-out: KDapp)?
Answer: Its Kd is 3.28 µM.

Question: And the Kd ([3]; read-out: KDapp)?
Answer: The Kd was 24.5 µM.

Question: And the EC50 [3]?
Answer: The EC50 was 25.8 µM.

Question: What about the pKDapp [3] of the same molecule?
Answer: Its pKDapp is 4.61.

Question: And the EC50 [4]?
Answer: Its EC50 is 45.9 nM.

Question: What about the pKDapp [4] of the same molecule?
Answer: Its pKDapp is 7.50.

Question: And the Kd ([4]; read-out: KDapp)?
Answer: Its Kd is 31.4 nM.

Question: And the Kd ([5]; read-out: KDapp)?
Answer: Its Kd is 466 nM.

Question: And the EC50 [5]?
Answer: Its EC50 is 523 nM.

Question: What about the pKDapp [5] of the same molecule?
Answer: Its pKDapp is 6.33.

Question: What about the EC50 [6] of the same molecule?
Answer: The EC50 was 56.7 nM.

Question: What about the pKDapp [6] of the same molecule?
Answer: Its pKDapp is 7.42.

Question: What about the Kd ([6]; read-out: KDapp) of the same molecule?
Answer: The Kd was 37.9 nM.

Question: What about the EC50 [7] of the same molecule?
Answer: The EC50 was 507 nM.

Question: What about the pKDapp [7] of the same molecule?
Answer: Its pKDapp is 6.47.

Question: And the Kd ([7]; read-out: KDapp)?
Answer: Its Kd is 335 nM.

Question: And the EC50 [8]?
Answer: The EC50 was 720 nM.

Question: And the pKDapp [8]?
Answer: The pKDapp was 6.16.

Question: And the Kd ([8]; read-out: KDapp)?
Answer: Its Kd is 693 nM.

Question: And the Kd ([9]; read-out: KDapp)?
Answer: Its Kd is 5.8 nM.

Question: And the EC50 [9]?
Answer: Its EC50 is 10.3 nM.

Question: And the pKDapp [9]?
Answer: The pKDapp was 8.24.

Question: What about the EC50 [10] of the same molecule?
Answer: The EC50 was 19.7 nM.

Question: What about the pKDapp [10] of the same molecule?
Answer: Its pKDapp is 7.71.

Question: What about the Kd ([10]; read-out: KDapp) of the same molecule?
Answer: The Kd was 19.7 nM.

Question: What about the Kd ([11]; read-out: KDapp) of the same molecule?
Answer: The Kd was 776 nM.

Question: And the EC50 [11]?
Answer: Its EC50 is 1500 nM.

Question: What about the pKDapp [11] of the same molecule?
Answer: Its pKDapp is 6.11.

Question: What about the Kd ([12]; read-out: KDapp) of the same molecule?
Answer: The Kd was 1320 nM.

Question: And the EC50 [12]?
Answer: Its EC50 is 1750 nM.

Question: What about the pKDapp [12] of the same molecule?
Answer: Its pKDapp is 5.88.

Question: Which Reponse ([13]; R1, 13.72 nM) does the source give for `Nc1ccn([C@@H]2O[C@H](CO)[C@@H](O)C2(F)F)c(=O)n1` [GEM, Gemcitabine] here?
Answer: Its Reponse is 2430360.

Question: And the Reponse ([13]; R1, 41.15 nM)?
Answer: The Reponse was 2458400.

Question: What about the Reponse ([13]; R1, 123.46 nM) of the same molecule?
Answer: The Reponse was 2746800.

Question: And the Reponse ([13]; R1, 370.37 nM)?
Answer: The Reponse was 2410520.

Question: What about the Reponse ([13]; R1, 1111.11 nM) of the same molecule?
Answer: The Reponse was 2265000.

Question: And the Reponse ([13]; R1, 3333.33 nM)?
Answer: The Reponse was 1887440.

Question: And the Reponse ([13]; R1, 10000 nM)?
Answer: The Reponse was 1259640.

Question: And the Reponse ([13]; R2, 13.72 nM)?
Answer: The Reponse was 3059000.

Question: What about the Reponse ([13]; R2, 41.15 nM) of the same molecule?
Answer: Its Reponse is 2844720.

Question: And the Reponse ([13]; R2, 123.46 nM)?
Answer: The Reponse was 2708840.

Question: And the Reponse ([13]; R2, 370.37 nM)?
Answer: The Reponse was 2516400.

Question: And the Reponse ([13]; R2, 1111.11 nM)?
Answer: The Reponse was 2343080.

Question: And the Reponse ([13]; R2, 3333.33 nM)?
Answer: Its Reponse is 1957840.

Question: What about the Reponse ([13]; R2, 10000 nM) of the same molecule?
Answer: Its Reponse is 1504480.

Question: What about the Curve bottom ([13]; GEM curve fit) of the same molecule?
Answer: The Curve bottom was 0.27.

Question: And the Curve effect size ([13]; GEM curve fit)?
Answer: Its Curve effect size is 0.73.

Question: And the Curve slope ([13]; GEM curve fit)?
Answer: Its Curve slope is 1.67.

Question: What about the Curve top ([13]; GEM curve fit) of the same molecule?
Answer: The Curve top was 1.00.

Question: And the AUC ([13]; GEM curve fit, in %)?
Answer: Its AUC is 48.78.

Question: And the EC50 ([13]; read-out: EC50)?
Answer: The EC50 was 4.34 nM.

Question: What about the EC50 ([13]; read-out: pEC50 (converted)) of the same molecule?
Answer: Its EC50 is 4.37 nM.

Question: With `C[C@]12O[C@H](C[C@]1(O)CO)n1c3ccccc3c3c4c(c5c6ccccc6n2c5c31)CNC4=O` [Lestaurtinib] as the molecule, how does the EC50 [14] read?
Answer: The EC50 was 1790 nM.

Question: And the EC50 [16]?
Answer: Its EC50 is 2470 nM.

Question: And the EC50 [17]?
Answer: The EC50 was 1340 nM.
